Test system: adipocytes
Assay: Lypolysis Assay Kit (dual glycerol and free fatty acids detection), adipocyte lipolytic activity
Format: cell-based
Settings: forskolin 25, 2.5, 0.25 micromolar; conjugated linoleic acid 10, 1, 0.1 micromolar; 5 hours at 37° C.; optical density at 540 nanometers
Method: Suitable lipolytic agents may be identified by conducting a simple test using a lipolysis assay kit purchased from Zen-Bio. One suitable kit is the Lypolysis Assay Kit (dual glycerol and free fatty acids detection, reagents+cells) purchased from Zen-Bio (www.zen-bio.com) under catalog no. LIP-3.
The adipocyte lipolytic activity of ingredients was tested using Lypolysis Assay Kit (dual glycerol and free fatty acids detection, reagents+cells) purchased from Zen-Bio (www.zen-bio.com) under catalog no. LIP-3. Serial dilutions of forskolin and conjugated linoleic acid were prepared in Krebs-Ringer Buffer containing 1% by weight free fatty acid bovine serum albumin. Culture medium was removed from the plate wells and the cells were washed with phosphate buffered saline. The forskolin test material was added to the test wells to provide wells having a total concentration of 25, 2.5, and 0.25 micromolar. The conjugated linoleic acid test material was added to the test wells to provide concentrations of 10, 1, and 0.1 micromolar. The plate was incubated for 5 hours at 37° C. Fifty microliters of test material was removed from each plate and transferred to clean wells. Triglyceride breakdown was tested by measuring for the presence of glycerol or NEFA (non-esterified fatty acids). […] The optical density of each well of the glycerol and NEFA plate wells was measured at 540 nanometers.

Substance: conjugated linoleic acid
- adipocyte lipolytic activity (triglyceride breakdown, glycerol or NEFA): effective in increasing lipolysis of adipocytes
